Earlier results in article PMC2360332 (British Journal of Cancer, 2007).

Legend:
breast cancer growth = tested on: breast cancer growth; set-up: method as in Lippman and Bolan, 1975; settings: ref Lippman and Bolan, 1975; cited from earlier work
[1] = tested on: human breast cancer xenografts; settings: cited from earlier work
From the text: A peptide (α-fetoprotein-derived peptide (AFPep), sequence cyclo(EKTOVNOGN), where O is hydroxyproline) derived from the active site of α-fetoprotein (AFP) has been under investigation as a potential agent for prevention or therapy of oestrogen receptor-positive (ER+) breast cancer ([Mesfin et al, 2000], [2001]; [Bennett et al, 2002], [2006]; [DeFreest et al, 2004]). […] In fact, in this study and ...

[2] = set-up: method as in earlier work; settings: high doses; ref Mesfin et al, 2001; Bennett et al, 2002, 2006; Parikh et al, 2005; cited from earlier work
immature mouse uterus = settings: earlier study; ref Bennett et al, 2002; cited from earlier work
From the text: (§1) In fact, in this study and ...

ER = settings: ref Parikh et al, 2005; Bennett et al, 2006; cited from earlier work
From the text: as §1

[3] = tested on: MNU-induced breast cancers in rats; settings: ref Parikh et al, 2005; cited from earlier work
From the text: (§2) A peptide (α-fetoprotein-derived peptide (AFPep), sequence cyclo(EKTOVNOGN), where O is hydroxyproline) derived from the active site of α-fetoprotein (AFP) has been under investigation as a potential agent for prevention or therapy of oestrogen receptor-positive (ER+) breast cancer ([Mesfin et al, 2000], [2001]; [Bennett et al, 2002], [2006]; [DeFreest et al, 2004]).

[4] = tested on: breast cancer that had become resistant to the cytostatic effects of tamoxifen; settings: ref Bennett et al, 2002; cited from earlier work
From the text: as §2

| Compound | Breast cancer growth (in words) (breast cancer growth) | Oral activity (in words) ([1]; oral route, ref Bennett et al, 2006) | Growth of human breast cancer xenografts in mice (in words) ([1]; ref Mesfin et al, 2001) | Toxicity or side effects in previous work (in words) [2] | Tam-induced uterine hyperplasia (in words) (immature mouse uterus) | ER antagonist / partial agonist (in words) (ER) | Development of carcinogen-induced mammary cancers in rats (in words) [3] | Growth of tamoxifen-resistant breast cancer (in words) [4] |
| --- | --- | --- | --- | --- | --- | --- | --- | --- |
| CC/C(=C(\c1ccccc1)c1ccc(OCCN(C)C)cc1)c1ccccc1 [Tam, Tamoxifen, reference compound] | inhibit breast cancer growth | – | – | – | – | – | – | – |
| cyclo(EKTOVNOGN) (head to tail) [AFPep] | – | active by the oral route | inhibit the growth of human breast cancer xenografts in mice | no evidence of toxicity or side effects has been detected | interferes with the uterine hyperplasia induced by Tam | not an ER antagonist, nor an ER partial agonist | prevent the development of carcinogen-induced mammary cancers in rats | inhibit the growth of breast cancer that had become resistant to the cytostatic effects of tamoxifen |
